Reference: patent publication US5593984A, “Cephalosporin derivatives” (Yuhan Corporation, priority 1992, dated 1997)
≈ marks a conversion by molar mass, not a printed value.

What was measured:
Format in all cases: cell-based
E. coli NIHJ JC-2 = experiment: MIC by agar dilution, E. coli NIHJ JC-2; details: Escherichia coli, NIHJJC2, 17 h; E. coli NIHJ JC-2; agar dilution, Mueller-Hinton agar; read-out: Minimal Inhibitory Concentration (MIC)
Method: (§1) These MIC values were determined by agar dilution method: that is, two-fold dilutions of each of the test compounds were made and dispersed in a Mueller-Hinton agar medium; standard test strain which had the 10^6 CFU (Colony Forming Unit) per ml was inoculated on the medium with microplanter (Toyo, Japan), and incubated at 35°-37° C. for 17±1 hours. The structures of Ceftazidime (CAZ) and Cefotaxime (CTX) which are used as control compounds are as follows: [drawing 12]

[1] = test system: S. epidermidis ATCC 12228; experiment: MIC by agar dilution, S. epidermidis ATCC 12228; details: Staphylococcus epidermidis, ATCC12228, 17 h; S. epidermidis ATCC 12228; agar dilution, Mueller-Hinton agar; read-out: Minimal Inhibitory Concentration (MIC)
Method: as §1

Ent. cloacae IFO 13535 = experiment: MIC by agar dilution, Ent. cloacae IFO 13535; details: Enterobacter cloacae, IFO13535, 17 h; Ent. cloacae IFO 13535; agar dilution, Mueller-Hinton agar; read-out: Minimal Inhibitory Concentration (MIC)
Method: as §1

Staph. aureus ATCC 6538P = experiment: MIC by agar dilution, Staph. aureus ATCC 6538P; details: Staphylococcus aureus, ATCC6538P, 17 h; Staph. aureus ATCC 6538P; agar dilution, Mueller-Hinton agar; read-out: Minimal Inhibitory Concentration (MIC)
Method: as §1

M. morganii DY-1 = experiment: MIC by agar dilution, M. morganii DY-1; details: Morganella morganii, DY1, 17 h; M. morganii DY-1; agar dilution, Mueller-Hinton agar; read-out: Minimal Inhibitory Concentration (MIC)
Method: as §1

Staph. aureus C-57 = experiment: MIC by agar dilution, Staph. aureus C-57; details: Staphylococcus aureus, C57, 17 h, Mueller-Hinton agar, read-out: Minimal Inhibitory Concentration (MIC)
Method: as §1

Ps. aeruginosa DY-2 = experiment: MIC by agar dilution, Ps. aeruginosa DY-2; details: Pseudomonas aeruginosa, DY2, 17 h; Ps. aeruginosa DY-2; agar dilution, Mueller-Hinton agar; read-out: Minimal Inhibitory Concentration (MIC)
Method: as §1

E. coli No. 29 = experiment: MIC by agar dilution, E. coli No. 29; details: Escherichia coli, 17 h; E. coli No. 29; agar dilution, Mueller-Hinton agar; read-out: Minimal Inhibitory Concentration (MIC)
Method: as §1

Ent. aerogenes IFO 12979 = experiment: MIC by agar dilution, Ent. aerogenes IFO 12979; details: Klebsiella aerogenes, IFO12979, 17 h, Mueller-Hinton agar, read-out: Minimal Inhibitory Concentration (MIC)
Method: as §1

K. pneumoniae NCTC 9632 = experiment: MIC by agar dilution, K. pneumoniae NCTC 9632; details: Klebsiella pneumoniae, NCTC9632, 17 h; K. pneumoniae NCTC 9632; agar dilution, Mueller-Hinton agar; read-out: Minimal Inhibitory Concentration (MIC)
Method: as §1

Staph. aureus C-5216 = experiment: MIC by agar dilution, Staph. aureus C-5216; details: Staphylococcus aureus, C5216, 17 h, Mueller-Hinton agar, read-out: Minimal Inhibitory Concentration (MIC)
Method: as §1

B. subtilis ATCC 6633 = experiment: MIC by agar dilution, B. subtilis ATCC 6633; details: Bacillus subtilis, ATCC6633, 17 h; B. subtilis ATCC 6633; agar dilution, Mueller-Hinton agar; read-out: Minimal Inhibitory Concentration (MIC)
Method: as §1

[2] = test system: Ps. aeruginosa NCTC 10490; experiment: MIC by agar dilution, Ps. aeruginosa NCTC 10490; details: Pseudomonas aeruginosa, NCTC10490, 17 h, Mueller-Hinton agar, read-out: Minimal Inhibitory Concentration (MIC)
Method: as §1

[3] = test system: Ser. marcescens IFO 12648; experiment: MIC by agar dilution, Ser. marcescens IFO 12648; details: Serratia marcescens, IFO12648, 17 h; Ser. marcescens IFO 12648; agar dilution, Mueller-Hinton agar; read-out: Minimal Inhibitory Concentration (MIC)
Method: as §1

Staph. aureus Smith = experiment: MIC by agar dilution, Staph. aureus Smith; details: Staphylococcus aureus, 17 h, Mueller-Hinton agar, read-out: Minimal Inhibitory Concentration (MIC)
Method: as §1

E. coli DY-1 = experiment: MIC by agar dilution, E. coli DY-1; details: Escherichia coli, DY1, 17 h; E. coli DY-1; agar dilution, Mueller-Hinton agar; read-out: Minimal Inhibitory Concentration (MIC)
Method: as §1

Prov. stuartii IFO 12930 = experiment: MIC by agar dilution, Prov. stuartii IFO 12930; details: Providencia stuartii, IFO12930, 17 h, Mueller-Hinton agar, read-out: Minimal Inhibitory Concentration (MIC)
Method: as §1

Staph. aureus C-5113 = experiment: MIC by agar dilution, Staph. aureus C-5113; details: Staphylococcus aureus, C5113, 17 h, Mueller-Hinton agar, read-out: Minimal Inhibitory Concentration (MIC)
Method: as §1

P. vulgaris NCTC 8313 = experiment: MIC by agar dilution, P. vulgaris NCTC 8313; details: Proteus vulgaris, NCTC8313, 17 h; P. vulgaris NCTC 8313; agar dilution, Mueller-Hinton agar; read-out: Minimal Inhibitory Concentration (MIC)
Method: as §1

[4] = test system: Ps. aeruginosa ATCC 10145; experiment: MIC by agar dilution, Ps. aeruginosa ATCC 10145; details: Pseudomonas aeruginosa, ATCC10145, 17 h, Mueller-Hinton agar, read-out: Minimal Inhibitory Concentration (MIC)
Method: as §1

| SMILES | MIC (E. coli NIHJ JC-2) [µg/mL] | MIC [1] [µg/mL] | MIC (Ent. cloacae IFO 13535) [µg/mL] | MIC (Staph. aureus ATCC 6538P) [µg/mL] | MIC (M. morganii DY-1) [µg/mL] | MIC (Staph. aureus C-57) [µg/mL] | MIC (Ps. aeruginosa DY-2) [µg/mL] | MIC (E. coli No. 29) [µg/mL] | MIC (Ent. aerogenes IFO 12979) [µg/mL] | MIC (K. pneumoniae NCTC 9632) [µg/mL] | MIC (Staph. aureus C-5216) [µg/mL] | MIC (B. subtilis ATCC 6633) [µg/mL] | MIC [2] [µg/mL] | MIC [3] [µg/mL] | MIC (Staph. aureus Smith) [µg/mL] | MIC (E. coli DY-1) [µg/mL] | MIC (Prov. stuartii IFO 12930) [µg/mL] | MIC (Staph. aureus C-5113) [µg/mL] | MIC (P. vulgaris NCTC 8313) [µg/mL] | MIC [4] [µg/mL] |
| --- | --- | --- | --- | --- | --- | --- | --- | --- | --- | --- | --- | --- | --- | --- | --- | --- | --- | --- | --- | --- |
| CCON=C(C(=O)NC1C(=O)N2C(C(=O)[O-])=C(C[n+]3ccn4c(SCCO)ccc4c3)CSC12)c1csc(N)n1 (stereo not drawn) [Ex. 9, 7-β-[(Z)-2-(2-aminothiazol-4-yl)-2-ethoxyiminoacetamido]-3-[6-(2-HYDROXYETHYLTHIO)PYRROLO[1,2-a]pyrazinium-2-yl]methyl-3-cephem-4-carboxylate] | 0.025 (≈ 0.0414 µM) | 0.05 (≈ 0.0828 µM) | 0.2 (≈ 0.331 µM) | 0.1 (≈ 0.166 µM) | 0.012 (≈ 0.0199 µM) | 12.5 (≈ 20.7 µM) | 3.13 (≈ 5.18 µM) | ≤ 0.006 | 0.05 (≈ 0.0828 µM) | 0.025 (≈ 0.0414 µM) | 0.78 (≈ 1.29 µM) | 0.1 (≈ 0.166 µM) | 0.2 (≈ 0.331 µM) | 0.05 (≈ 0.0828 µM) | 0.1 (≈ 0.166 µM) | ≤ 0.006 | 0.025 (≈ 0.0414 µM) | 0.39 (≈ 0.646 µM) | ≤ 0.006 | 3.13 (≈ 5.18 µM) |
| Nc1nc(C(=NOCF)C(=O)NC2C(=O)N3C(C(=O)[O-])=C(C[n+]4ccn5c(SCCO)ccc5c4)CSC23)cs1 (stereo not drawn) [Ex. 10, 7-β-[(Z)-2-(2-aminothiazol-4-yl)-2-fluoromethoxyiminoacetamido]-3-[6-(2-hydroxyethylthio)pyrrolo[1,2-a]pyrazinium-2-yl]methyl-3-cephem-4-carboxylate] | 0.025 (≈ 0.0411 µM) | 0.05 (≈ 0.0823 µM) | 0.2 (≈ 0.329 µM) | 0.1 (≈ 0.165 µM) | 0.012 (≈ 0.0197 µM) | 12.5 (≈ 20.6 µM) | 3.13 (≈ 5.15 µM) | ≤ 0.006 | 0.05 (≈ 0.0823 µM) | 0.025 (≈ 0.0411 µM) | 0.78 (≈ 1.28 µM) | 0.1 (≈ 0.165 µM) | 0.2 (≈ 0.329 µM) | 0.012 (≈ 0.0197 µM) | 0.1 (≈ 0.165 µM) | ≤ 0.006 | ≤ 0.006 | 0.39 (≈ 0.642 µM) | 0.012 (≈ 0.0197 µM) | 0.78 (≈ 1.28 µM) |
| CON=C(C(=O)NC1C(=O)N2C(C(=O)[O-])=C(C[n+]3ccn4c(Cl)ccc4c3)CSC12)c1csc(N)n1 (stereo not drawn) [Ex. 11, 7-β-[(Z)-2-(2-aminothiazol-4-yl)-2-methoxyiminoacetamido]-3-(6-chloropyrrolo[1,2-a]pyrazinium-2-yl)methyl-3-cephem-4-carboxylate] | ≤ 0.006 | 0.025 (≈ 0.0456 µM) | 0.05 (≈ 0.0912 µM) | 0.2 (≈ 0.365 µM) | ≤ 0.006 | 12.5 (≈ 22.8 µM) | 3.13 (≈ 5.71 µM) | ≤ 0.006 | ≤ 0.006 | ≤ 0.006 | 0.78 (≈ 1.42 µM) | 0.1 (≈ 0.182 µM) | 0.39 (≈ 0.712 µM) | 0.012 (≈ 0.0219 µM) | 0.39 (≈ 0.712 µM) | ≤ 0.006 | ≤ 0.006 | 0.78 (≈ 1.42 µM) | ≤ 0.006 | 0.78 (≈ 1.42 µM) |
| CCON=C(C(=O)NC1C(=O)N2C(C(=O)[O-])=C(C[n+]3ccn4c(Cl)ccc4c3)CSC12)c1csc(N)n1 (stereo not drawn) [Ex. 12, 7-β-[(Z)-2-(2-aminothiazol-4-yl)-2-ethoxyiminoacetamido]-3-(6-chloropyrrolo[1,2-a]pyrazinium-2-yl)methyl-3-cephem-4-carboxylate] | 0.05 (≈ 0.089 µM) | 0.05 (≈ 0.089 µM) | 0.39 (≈ 0.694 µM) | 0.2 (≈ 0.356 µM) | 0.025 (≈ 0.0445 µM) | 12.5 (≈ 22.2 µM) | 6.25 (≈ 11.1 µM) | 0.012 (≈ 0.0214 µM) | 0.025 (≈ 0.0445 µM) | 0.025 (≈ 0.0445 µM) | 0.78 (≈ 1.39 µM) | 0.1 (≈ 0.178 µM) | 0.39 (≈ 0.694 µM) | 0.025 (≈ 0.0445 µM) | 0.39 (≈ 0.694 µM) | 0.012 (≈ 0.0214 µM) | 0.025 (≈ 0.0445 µM) | 0.78 (≈ 1.39 µM) | 0.012 (≈ 0.0214 µM) | 1.56 (≈ 2.78 µM) |
| CON=C(C(=O)NC1C(=O)N2C(C(=O)[O-])=C(C[n+]3ccn4c(C#N)ccc4c3)CSC12)c1csc(N)n1 (stereo not drawn) [Ex. 13, 7-β-[(Z)-2-(2-aminothiazol-4-yl)-2-methoxyiminoacetamido]-3-(6-cyanopyrrolo[1,2-a]pyrazinium-2-yl)methyl-3-cephem-4-carboxylate] | 0.012 (≈ 0.0223 µM) | 0.1 (≈ 0.186 µM) | 0.05 (≈ 0.0928 µM) | 0.39 (≈ 0.724 µM) | 0.025 (≈ 0.0464 µM) | 25 (≈ 46.4 µM) | 3.13 (≈ 5.81 µM) | 0.012 (≈ 0.0223 µM) | 0.012 (≈ 0.0223 µM) | 0.025 (≈ 0.0464 µM) | 0.78 (≈ 1.45 µM) | 0.2 (≈ 0.371 µM) | 0.39 (≈ 0.724 µM) | 0.012 (≈ 0.0223 µM) | 1.56 (≈ 2.9 µM) | 0.012 (≈ 0.0223 µM) | ≤ 0.006 | 0.78 (≈ 1.45 µM) | ≤ 0.006 | 0.78 (≈ 1.45 µM) |
